Assay results from US10993917B2, “Nanocomplex” (AGENCY FOR SCIENCE, TECHNOLOGY AND RESEARCH, priority 2016, dated 2021).

Tests used:
[1] = Drug release study by dialysis in PBS pH 7.4 (physiological stability); assay type: physicochemical; details: 10 mM PBS pH 7.4, 37° C.
Experimental: The dialysis tube was immersed in total 30 mL of 10 mM PBS (pH 7.4). The dialysis tube was then incubated at 37° C. on an orbital shaker at 50 rpm. […] The dialysis tube was then immersed in total 30 mL of 100 mM phosphate buffer (pH 6) at 37° C. At predetermined time points, the amount of cisplatin released in the medium was determined by ICP-MS as described above. […] This rapid drug leakage was caused by the dissociation of HA/cisplatin complexes via the replacement of the carboxylate ligand of Pt(II) with the chloride ion in PBS.

[2] = Biodistribution study in SKOV-3 tumor-bearing mice; assay type: in vivo, athymic NCR nude mice; details: intravenous, 2 mg Pt kg^−1, 4 hours post-injection
Experimental: All animal experiments were performed according to the protocols approved by the IACUC at the Biological Resource Centre, Singapore. Female athymic NCR nude mice (CrTac:Ncr-Foxn1^nu, 5-6 weeks old) were inoculated subcutaneously with 1×10^7 SKOV-3 cells suspended in 100 μL of PBS and 100 μL of Matrigel (BD Bioscience, of the United States of America) in the right flank. […] At predetermined time points, blood and organs were collected (4 mice per time point). The collected plasma and organs were decomposed in 65% (v/v) nitric acid at 60° C. for 2 hours, and the platinum concentration was measured by ICP-MS.

[3] = system: SKOV-3 human ovarian cancer xenograft; assay: Antitumor efficacy study in a subcutaneous xenograft model; assay type: in vivo, NCR mice; details: 1 mg Pt kg^−1 i.v. on days 0, 7 and 14
Experimental: Female NCR mice bearing a subcutaneous SKOV-3 human ovarian cancer xenograft (120-150 mm^3) were randomly allocated to different treatments (10 mice per group). […] An isotonic dextrose solution (5% w/v) was used as a control. The tumor volume (mm^3) was calculated from the following formula: volume=(length×width^2)/2. In addition, a change in the body weight in the course of treatment was monitored as a measure of systemic toxicity.

[4] = Blood chemistry analysis 38 days after first treatment; assay type: in vivo, athymic NCR mice; details: 38-days endpoint, 1 mg Pt kg^−1 i.v. days 0, 7, 14
Source text: The athymic NCR mice that received different treatments were sacrificed to collect blood, tumor, and organs 38 days after the first treatment. For blood chemistry analysis, blood samples were collected in heparinized tubes and then examined using the Vetscan VS2 blood chemistry analyzer (Abaxis Inc., of California of the United States of America). The levels of alkaline phosphatase (ALP), alanine aminotransferase (ALT) and other serum markers were examined. The excised tumors and organs were fixed with neutral buffered formalin, embedded in paraffin blocks, and then sectioned for hematoxylin and eosin (H&E) staining.

## N.N.[Cl][Pt][Cl] [free cisplatin, cisplatin]
[1]
  time to complete release from the dialysis tube: ≤ 6 h
[2]
  cisplatin dose delivered into the tumor mass: 1.53±0.48 % ID/g
  platinum accumulation in the liver: 1.31±0.25 % ID/g
[3]
  tumor growth: slightly delayed the tumor growth
[3]; day 38
  mean tumor volume: 299.7±117.7 mm^3
[4]
  ALP level in blood: elevated
  ALT level in blood: elevated
